Measurements from BigSolDB 2.1.

ON(Cc1ccccc1)Cc1ccccc1
Conditions	solubility (mole fraction)
in ethyl acetate, 313.15 K	0.0483
in ethyl acetate, 317.15 K	0.0551
in ethyl acetate, 323.15 K	0.0679
in isobutanol, 273.15 K	0.000771
in isobutanol, 279.15 K	0.00114
in isobutanol, 283.65 K	0.00149
in isobutanol, 289.15 K	0.00208
in isobutanol, 293.25 K	0.00258
in isobutanol, 298.65 K	0.00355
in isobutanol, 303.25 K	0.00446
in isobutanol, 309.05 K	0.00613
in isobutanol, 313.25 K	0.00753
in isobutanol, 318.95 K	0.0097
in isobutanol, 323.35 K	0.0119
in isopropanol, 273.15 K	0.000527
in isopropanol, 279.15 K	0.000822
in isopropanol, 283.65 K	0.00111
in isopropanol, 289.15 K	0.00164
in isopropanol, 293.25 K	0.00206
in isopropanol, 298.65 K	0.00298
in isopropanol, 303.25 K	0.00389
in isopropanol, 309.05 K	0.00542
in isopropanol, 313.25 K	0.00677
in isopropanol, 318.95 K	0.00891
in isopropanol, 323.35 K	0.0114
in methanol, 273.15 K	0.00126
in methanol, 279.15 K	0.00171
in methanol, 283.45 K	0.00209
in methanol, 289.05 K	0.00276
in methanol, 293.05 K	0.00333
in methanol, 297.65 K	0.00409
in methanol, 302.85 K	0.00513
in methanol, 308.05 K	0.00648
in methanol, 313.15 K	0.00795
in methanol, 317.15 K	0.00934
in methanol, 323.15 K	0.0117
in n-butanol, 273.15 K	0.00141
in n-butanol, 279.15 K	0.00198
in n-butanol, 283.45 K	0.00248
in n-butanol, 289.05 K	0.00338
in n-butanol, 293.05 K	0.00411
in n-butanol, 297.65 K	0.00509
in n-butanol, 302.85 K	0.00663
in n-butanol, 308.05 K	0.00843
in n-butanol, 313.15 K	0.0108
in n-butanol, 317.15 K	0.0127
in n-butanol, 323.15 K	0.0159
in n-octanol, 273.15 K	0.00126
in n-octanol, 279.15 K	0.00187
in n-octanol, 283.65 K	0.00248
in n-octanol, 289.15 K	0.00352
in n-octanol, 293.25 K	0.00449
in n-octanol, 298.65 K	0.00627
in n-octanol, 303.25 K	0.00789
in n-octanol, 309.05 K	0.011
in n-octanol, 313.25 K	0.0136
in n-octanol, 318.95 K	0.0178
in n-octanol, 323.35 K	0.022
in n-pentanol, 273.65 K	0.00163
in n-pentanol, 279.15 K	0.00226
in n-pentanol, 284.15 K	0.00291
in n-pentanol, 289.15 K	0.00386
in n-pentanol, 293.75 K	0.00479
in n-pentanol, 299.15 K	0.00631
in n-pentanol, 303.25 K	0.00766
in n-pentanol, 308.45 K	0.00965
in n-pentanol, 313.15 K	0.0121
in n-pentanol, 318.15 K	0.0151
in n-pentanol, 323.15 K	0.0185
in n-propanol, 273.15 K	0.00136
in n-propanol, 279.15 K	0.00187
in n-propanol, 283.45 K	0.00232
in n-propanol, 289.05 K	0.00313
in n-propanol, 293.05 K	0.00383
in n-propanol, 297.65 K	0.00476
in n-propanol, 302.85 K	0.00606
in n-propanol, 308.05 K	0.00781
in n-propanol, 313.15 K	0.00991
in n-propanol, 317.15 K	0.012
in n-propanol, 323.15 K	0.015
in toluene, 273.15 K	0.0043
in toluene, 279.15 K	0.00586
in toluene, 283.65 K	0.00732
in toluene, 289.15 K	0.00959
in toluene, 293.25 K	0.0114
in toluene, 298.65 K	0.0149
in toluene, 303.25 K	0.0182
in toluene, 309.05 K	0.0231
in toluene, 313.25 K	0.0273
in toluene, 318.95 K	0.0337
in toluene, 323.35 K	0.0398
